Here are results for twelve compounds from PubChem BioAssay AID280 (DTP/NCI, 2004).

The structures appear in SMILES notation. Toxic doses and inconclusive results are not listed. Starred links: 1 amine or outer side, 2 acyl side, 3 side chain; linkers in the order of their positions; H or OH if unused. Positions of bridges follow the written chain, without caps; N, C: chain ends. Non-standard residues stand in square brackets, D forms with d. Residues, ends and D or L forms follow the SMILES beside them. Chains are numbered I, II in the order given. Actinocin(9to1) = Cc1c2oc3c(C)ccc(C(=O)[*:1])c3nc-2c(C(=O)[*:2])c(N)c1=O; aThr = C[C@H](O)[C@H](N)C(=O)O; NMeV = CN[C@H](C(=O)O)C(C)C; Sar = CNCC(=O)O

This test relates to nude mice, LOX melanoma ip, survival T/C. As to the kind of experiment: NCI In Vivo Anticancer Drug Screen. Data for tumor model Human Amelanotic Melanoma (LOX) (intraperitoneal) in NU/NU BALB/C (nude) mice. The conditions noted are these: endpoint: median survival time, higher = longer survival. As for the experimental part: The antitumor activity of compounds was measured in mice bearing transplantable tumors. Survival or tumor size were measured and the results are expressed as the measurement made in the treated group (T) divided by the measurement made in the vehicle treated control group (C). The tumor model used in this assay is Human Amelanotic Melanoma (LOX) (intraperitoneal) in NU/NU BALB/C (nude) mice

Where [1] appears, read: dose: 75.0 mg/kg/injection, schedule: Q04DX003 (ip), vehicle: Klucel (hydroxypropylcellulose) (HPC).
The mark [2] stands for this setting: dose: 150.0 mg/kg/injection, schedule: Q04DX003 (ip), vehicle: Klucel (hydroxypropylcellulose) (HPC).
[3] abbreviates: dose: 30.0 mg/kg/injection, schedule: Q04DX003 (ip), vehicle: saline.

As for `NC(=S)N/N=C/c1cc(=O)c2cc(Cl)ccc2o1`, the T/C runs as follows: (dose: 75.0 mg/kg/injection, schedule: Q04DX003 (ip), vehicle: other) 107 % of control; (dose: 150.0 mg/kg/injection, schedule: Q04DX003 (ip), vehicle: other) 101 % of control; (dose: 300.0 mg/kg/injection, schedule: Q04DX003 (ip), vehicle: other) 100 % of control; (dose: 600.0 mg/kg/injection, schedule: Q04DX003 (ip), vehicle: other) 105 % of control; (dose: 1200.0 mg/kg/injection, schedule: Q04DX003 (ip), vehicle: other) 101 % of control.
Take `Cc1cc(N/N=C/c2ccccn2)nc2ccccc12`: the T/C was 107 % of control under setting [1] and 107 % of control under setting [2].
Consider `CCOC(=O)Nc1cc2c(c(N)n1)N=C(c1ccccc1)CN2`, for which the T/C runs as follows: (dose: 0.94 mg/kg/injection, schedule: Q04DX003 (ip), vehicle: saline with Tween-80) 103 % of control; (dose: 1.88 mg/kg/injection, schedule: Q04DX003 (ip), vehicle: saline with Tween-80) 107 % of control; (dose: 3.75 mg/kg/injection, schedule: Q04DX003 (ip), vehicle: saline with Tween-80) 119 % of control; (dose: 7.5 mg/kg/injection, schedule: Q04DX003 (ip), vehicle: saline with Tween-80) 121 % of control.
As to `COc1ccc(S(=O)(=O)N=N/C=C2\C=CC=CN2O)cc1OC`, the T/C was 116 % of control (dose: 9.38 mg/kg/injection, schedule: Q04DX003 (ip), vehicle: saline with Tween-80); 101 % of control (dose: 18.75 mg/kg/injection, schedule: Q04DX003 (ip), vehicle: saline with Tween-80); 94 % of control (dose: 37.5 mg/kg/injection, schedule: Q04DX003 (ip), vehicle: saline with Tween-80); 124 % of control (dose: 54.0 mg/kg/injection, schedule: Q04DX003 (ip), vehicle: saline with Tween-80); 105 % of control (dose: 75.0 mg/kg/injection, schedule: Q04DX003 (ip), vehicle: saline with Tween-80); 173 % of control (dose: 150.0 mg/kg/injection, schedule: Q04DX003 (ip), vehicle: saline with Tween-80). For the same compound, the T/C is 165 % of control (dose: 250.0 mg/kg/injection, schedule: Q04DX003 (ip), vehicle: saline with Tween-80) and 156 % of control (dose: 416.67 mg/kg/injection, schedule: Q04DX003 (ip), vehicle: saline with Tween-80).
As to `C=CCOc1cc2c(cc1C(C)c1ccc(OC)cc1)OCO2` (configuration not stated), the T/C (dose: 37.5 mg/kg/injection, schedule: Q04DX003 (ip), vehicle: Klucel (hydroxypropylcellulose) (HPC)) is 101 % of control; the T/C under setting [1] is 96 % of control; the T/C under setting [2] is 109 % of control; the T/C (dose: 300.0 mg/kg/injection, schedule: Q04DX003 (ip), vehicle: Klucel (hydroxypropylcellulose) (HPC)) is 112 % of control.
Consider `CCCSc1nc(COC(=O)NC)c(COC(=O)NC)n1C`, for which the T/C reads like this: under setting [3], 113 % of control; (dose: 60.0 mg/kg/injection, schedule: Q04DX003 (ip), vehicle: saline) 110 % of control; (dose: 120.0 mg/kg/injection, schedule: Q04DX003 (ip), vehicle: saline) 90 % of control; (dose: 240.0 mg/kg/injection, schedule: Q04DX003 (ip), vehicle: saline) 98 % of control.
Regarding `Cc1c2oc3c(C)ccc(C(=O)N[C@@H]4C(=O)N[C@H](C(C)C)C(=O)N5CCC[C@H]5C(=O)N(C)CC(=O)N(C)[C@@H](C(C)C)C(=O)O[C@H]4C)c3nc-2c(C(=O)N[C@@H]2C(=O)N[C@H](C(C)C)C(=O)N3CCC[C@H]3C(=O)N(C)CC(=O)N(C)[C@@H](C(C)C)C(=O)O[C@H]2C)c(N)c1=O` (I: [aThr][dV]P[Sar][NMeV] / II: [aThr][dV]P[Sar][NMeV]; ester I:1-I:C, II:1-II:C; linker I:N-II:N via Actinocin(9to1)), the T/C is 185 % of control (dose: 0.07 mg/kg/injection, schedule: Q04DX003 (ip), vehicle: saline); 151 % of control (dose: 0.13 mg/kg/injection, schedule: Q01DX001 (ip), vehicle: saline); 269 % of control (dose: 0.13 mg/kg/injection, schedule: Q04DX003 (ip), vehicle: saline); 153 % of control (dose: 0.25 mg/kg/injection, schedule: Q01DX001 (ip), vehicle: saline); 337 % of control (dose: 0.25 mg/kg/injection, schedule: Q04DX003 (ip), vehicle: saline); 264 % of control (dose: 0.5 mg/kg/injection, schedule: Q01DX001 (ip), vehicle: saline). Moreover, the T/C is 337 % of control (dose: 0.5 mg/kg/injection, schedule: Q04DX003 (ip), vehicle: saline); 337 % of control (dose: 1.0 mg/kg/injection, schedule: Q01DX001 (ip), vehicle: saline); 87 % of control (dose: 1.3 mg/kg/injection, schedule: Q04DX003 (ip), vehicle: saline); 162 % of control (dose: 0.13 micrograms/kg/injection, schedule: Q01DX005 (ip), vehicle: saline); 207 % of control (dose: 0.13 micrograms/kg/injection, schedule: Q01DX015 (ip), vehicle: saline); 191 % of control (dose: 25.0 micrograms/kg/injection, schedule: Q01DX005 (ip), vehicle: saline). Besides, the T/C is, setting by setting: (dose: 25.0 micrograms/kg/injection, schedule: Q01DX015 (ip), vehicle: saline) 337 % of control; (dose: 50.0 micrograms/kg/injection, schedule: Q01DX005 (ip), vehicle: saline) 337 % of control; (dose: 50.0 micrograms/kg/injection, schedule: Q01DX015 (ip), vehicle: saline) 337 % of control; (dose: 100.0 micrograms/kg/injection, schedule: Q01DX005 (ip), vehicle: saline) 337 % of control; (dose: 100.0 micrograms/kg/injection, schedule: Q01DX015 (ip), vehicle: saline) 337 % of control.
Consider `Cc1c2ccccc2c(C)c2c1cc(C(=O)O)c1ccccc12`, for which the T/C was 115 % of control (dose: 12.5 mg/kg/injection, schedule: Q04DX003 (ip), vehicle: sodium bicarbonate); 118 % of control (dose: 25.0 mg/kg/injection, schedule: Q04DX003 (ip), vehicle: sodium bicarbonate); 167 % of control (dose: 200.0 mg/kg/injection, schedule: Q04DX003 (ip), vehicle: sodium bicarbonate).
Regarding `CCC1(O)C(=O)OCc2c1cc1n(c2=O)Cc2cc3cc(N)ccc3nc2-1` (configuration not stated), the T/C (dose: 3.75 mg/kg/injection, schedule: Q04DX003 (ip), vehicle: suspension in saline) is 324 % of control; the T/C (dose: 4.0 mg/kg/injection, schedule: Q04DX003 (ip), vehicle: saline) was 189 % of control; the T/C (dose: 7.0 mg/kg/injection, schedule: Q04DX003 (ip), vehicle: saline) was 355 % of control; the T/C (dose: 7.5 mg/kg/injection, schedule: Q04DX003 (ip), vehicle: suspension in saline) is 324 % of control; the T/C (dose: 12.0 mg/kg/injection, schedule: Q04DX003 (ip), vehicle: saline) is 355 % of control; the T/C (dose: 15.0 mg/kg/injection, schedule: Q04DX003 (ip), vehicle: suspension in saline) is 324 % of control. Further, the T/C is, setting by setting: (dose: 20.0 mg/kg/injection, schedule: Q04DX003 (ip), vehicle: saline) 355 % of control; (dose: 33.0 mg/kg/injection, schedule: Q04DX003 (ip), vehicle: saline) 355 % of control.
Regarding `c1ccc2[nH]c(CN(CCN(Cc3nc4ccccc4[nH]3)Cc3nc4ccccc4[nH]3)Cc3nc4ccccc4[nH]3)nc2c1`, the T/C is, setting by setting: (dose: 6.25 mg/kg/injection, schedule: Q04DX003 (ip), vehicle: DMSO) 102 % of control; (dose: 12.5 mg/kg/injection, schedule: Q04DX003 (ip), vehicle: DMSO) 110 % of control; (dose: 25.0 mg/kg/injection, schedule: Q04DX003 (ip), vehicle: DMSO) 113 % of control; (dose: 50.0 mg/kg/injection, schedule: Q04DX003 (ip), vehicle: DMSO) 111 % of control.
For `Cc1ccoc1`, the T/C was 94 % of control (dose: 25.0 mg/kg/injection, schedule: Q04DX003 (ip), vehicle: saline with Tween-80); 95 % of control (dose: 50.0 mg/kg/injection, schedule: Q04DX003 (ip), vehicle: saline with Tween-80); 102 % of control (dose: 100.0 mg/kg/injection, schedule: Q04DX003 (ip), vehicle: saline with Tween-80); 95 % of control (dose: 200.0 mg/kg/injection, schedule: Q04DX003 (ip), vehicle: saline with Tween-80); 96 % of control (dose: 400.0 mg/kg/injection, schedule: Q04DX003 (ip), vehicle: saline with Tween-80).
As for `CCN(CC)CC(C)(C)C(=O)/C=C/c1ccc(/C=C/C(=O)C(C)(C)CN(CC)CC)cc1`, the T/C is 103 % of control (dose: 7.5 mg/kg/injection, schedule: Q04DX003 (ip), vehicle: saline); 116 % of control (dose: 15.0 mg/kg/injection, schedule: Q04DX003 (ip), vehicle: saline); 109 % of control under setting [3].
